The first experiment deals with T1, human TGR5 (Homo sapiens, UniProt Q8TDU6).
T1 construct: expressed in transfected cells
T1 sequence (Q8TDU6 1-330): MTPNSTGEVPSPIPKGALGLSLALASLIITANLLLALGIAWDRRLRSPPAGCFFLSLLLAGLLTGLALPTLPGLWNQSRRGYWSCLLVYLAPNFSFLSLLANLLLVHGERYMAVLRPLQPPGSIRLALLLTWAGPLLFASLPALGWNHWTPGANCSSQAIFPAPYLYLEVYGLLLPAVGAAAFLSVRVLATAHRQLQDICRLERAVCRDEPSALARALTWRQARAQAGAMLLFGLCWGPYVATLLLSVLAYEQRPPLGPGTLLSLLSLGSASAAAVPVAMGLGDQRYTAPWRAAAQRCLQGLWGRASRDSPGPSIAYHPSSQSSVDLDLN
Nature of the experiment: Cell-based TGR5 assay, HEK293 cells stably expressing human TGR5, cAMP by HTRF. To be noted: HEK293 cells stably expressing human TGR5, 30 min at 37 C, 0.05 nM to 10 μM, read-out: pEC50 Human TGR5 (converted). The method, then:
Two primary cell based screens were performed. The first utilized HEK293 cells stably transfected to heterologously express human TGR5. The second screen used the human caecum carcinoma cell line NCI-H716 which endogenously expresses human TGR5. In both assays, cells are treated with candidate TGR5 activators and assessed for the increased intercellular levels of cAMP.
HEK293 cells were transfected with a vector that expresses a gene encoding human TGR5, and a stable cell line was isolated using drug selection following standard techniques. Cells were grown overnight at 37° C./5% CO2 prior to assay.
TGR5-mediated cAMP generation was measured using a homogeneous time resolved fluorescence (HTRF) detection method (Cisbio). Test compounds were dissolved in DMSO to a final concentration of 10 mM. Serial 3-fold dilutions of the stock solution were made in DMSO, and these solutions were diluted 100-fold into Hanks Balanced Salt Solution supplemented with 10 mM HEPES pH 7.4 and 0.5 mM isobutyl methylxanthine (IBMX). Prior to assay, culture medium was replaced with fresh medium, and test compounds diluted in HBSS/HEPES/IBMX were added to the cells and incubated at 37° C. for 30 minutes.
Following incubation with test compounds, cAMP was detected through the successive addition of cAMP labeled with the modified allophyocyanin dye d2 (cAMP-d2) and cryptate-labeled anti-cAMP in lysis buffer, and reading HTRF per the manufacturer's instructions. A standard curve was used to convert the raw HTRF data into [cAMP].
(In general: TR-FRET usually uses a lanthanide donor and a delayed reading to cut background.)
For the molecule `O=C(NCCCN(CCCNC(=O)[C@H](O)[C@@H](O)[C@H](O)[C@H](O)CO)C(=O)c1ccc(COc2cc(Cl)c(CN3CSC[C@H]3C(=O)N3CCN(C4CC4)c4ccccc43)cc2Cl)cc1)[C@H](O)[C@@H](O)[C@H](O)[C@H](O)CO` [Example 197], the EC50 was 1.26 to 50.1 µM.
Still for that read-out and setting: the result for `CN(C[C@H](O)[C@@H](O)[C@H](O)[C@H](O)CO)C(=O)c1cccc(OCc2cc(Cl)c(CN3CSC[C@H]3C(=O)N3CCN(C4CC4)c4ccccc43)cc2Cl)c1` [Example 230] reads 0.126 to 1 µM; that for `O=C(CCCCc1ccc(Cl)c(CNC2(C(=O)N3CCN(C4CC4)c4ccccc43)CC2)c1)NC[C@H](O)[C@@H](O)[C@H](O)[C@H](O)CO` [Example 263], 1.26 to 50.1 µM.
The same measure, in the same setting: the value for `COC(=O)[C@H](CCCCN)NC(=O)NCCCCCc1cc(Cl)c(CN2CSC[C@H]2C(=O)N2CCN(C3CC3)c3ccccc32)cc1Cl` [Example 274] was 0.126 to 1 µM; that for `O=C([C@@H]1CSCN1Cc1c(Cl)ccc(Cl)c1O)N1CCN(C2CC2)c2ccccc21` [Example 170, (R)-(4-cyclopropyl-3,4-dihydroquinoxalin-1(2H)-yl)(3-(3,6-dichloro-2-hydroxybenzyl)thiazolidin-4-yl)methanone] was 0.126 to 1 µM; that for `O=C([C@H]1C[C@H](F)CN1Cc1cc(Cl)ccc1C(F)(F)F)N1CCN(C2CC2)c2ccccc21` [Example 264] was 0.126 to 1 µM.
The same measure, in the same setting: the result for `CN(C[C@H](O)[C@@H](O)[C@H](O)[C@H](O)CO)C(=O)CN(CCCCCc1cc(Cl)c(CN2CSC[C@H]2C(=O)N2CCN(C3CC3)c3ccccc32)cc1Cl)CC(=O)O` [Example 277] reads 0.126 to 1 µM.
Turning to `O=C(C1SCCN1Cc1cc(Cl)ccc1Cl)N1CCN(C2CC2)c2ccccc21` (centres unmarked) [Example 291], the EC50 was 1.26 to 50.1 µM.
Still for that read-out and setting: the result for `CN(C[C@H](O)[C@H](O)[C@@H](O)[C@H](O)CO)C(=O)c1ccc(CCc2cc(Cl)c(CN3CSC[C@H]3C(=O)N3CCN(C4CC4)c4ccccc43)cc2Cl)cn1` [Example 201] reads 0.126 to 1 µM; that for `Cn1nc(C(=O)O)cc1OCc1cc(Cl)c(CN2CSC[C@H]2C(=O)N2CCN(C3CC3)c3ccccc32)cc1Cl` [Example 233], 0.126 to 1 µM; that for `N=C(N)NCCCCCc1cc(Cl)c(CN2CSC[C@H]2C(=O)N2CCN(C3CC3)c3ccccc32)cc1Cl` [Example 181, (R)-(3-(4-(5-guanidinylpentyl)-2,5-dichlorobenzyl)thiazolidin-4-yl)(4-cyclopropyl-3,4-dihydroquinoxalin-1(2H)-yl)methanone], less than 0.1 µM.
Still for that read-out and setting: the result for `O=C([C@@H]1CSCN1Cc1cc(I)ccc1C(F)(F)F)N1CCN(C2CC2)c2ccccc21` [Example 270] reads 0.126 to 1 µM; that for `O=C(NCCCc1cc(Cl)c(OCC2(C(=O)N3CCN(C4CC4)c4ccccc43)CC2)cc1Cl)NC[C@H](O)[C@@H](O)[C@H](O)[C@H](O)CO` [Example 250], 0.126 to 1 µM; that for `CN(C[C@H](O)[C@@H](O)[C@H](O)[C@H](O)CO)C(=O)c1ccc(COc2cc(Cl)c(CN3CSC[C@H]3C(=O)N3CCN(C4CC4)c4ccccc43)cc2Cl)o1` [Example 203], 0.126 to 1 µM.
Same read-out and setting: the value for `CN(C[C@H](O)[C@@H](O)[C@H](O)[C@H](O)CO)C(=O)CCCCc1ccc(Cl)c(CNC2(C(=O)N3CCN(C4CC4)c4ccccc43)CC2)c1` [Example 262] was 1.26 to 50.1 µM; that for `COC(=O)c1cc(NCCCCCc2cc(Cl)c(CN3CSC[C@H]3C(=O)N3CCN(C4CC4)c4ccccc43)cc2Cl)nc(N(C)C[C@H](O)[C@@H](O)[C@H](O)[C@H](O)CO)n1` [Example 223] was 0.126 to 1 µM; that for `O=C(CCCCc1cc(Cl)c(CN2C[S+]([O-])C[C@H]2C(=O)N2CCN(C3CC3)c3ccccc32)cc1Cl)NC[C@H](O)[C@@H](O)[C@H](O)[C@H](O)CO` (some centres unmarked) [Example 221] was 0.126 to 1 µM.
On to `O=C(N1CCN(C2CC2)c2ccccc21)C1(NCc2c(Cl)ccc(Cl)c2O)CC1` [Example 168, (4-cyclopropyl-3,4-dihydroquinoxalin-1(2H)-yl)(1-((3,6-dichloro-2-hydroxybenzyl)amino)cyclopropyl)methanone], for which the EC50 is 0.126 to 1 µM.
On the same count and under the same terms, the result for `CN(C(=O)[C@@H]1CSCN1Cc1cc(Cl)ccc1Cl)c1ccccc1OC1CCC1` [Example 290] reads 0.126 to 1 µM; that for `O=C(O)CN1CCN(C(=O)NCCCCCc2cc(Cl)c(CN3CSC[C@H]3C(=O)N3CCN(C4CC4)c4ccccc43)cc2Cl)CC1` [Example 281], less than 0.1 µM.
Same read-out and setting: the value for `O=C(CCCCc1ccc(C(F)(F)F)c(CNC2(C(=O)N3CCN(C4CC4)c4ccccc43)CC2)c1)NC[C@H](O)[C@@H](O)[C@H](O)[C@H](O)CO` [Example 272] was 1.26 to 50.1 µM; that for `CN(C)c1nc(NCCCCCc2cc(Cl)c(CN3CSC[C@H]3C(=O)N3CCN(C4CC4)c4ccccc43)cc2Cl)nc(NC(CO)(CO)CO)n1` [Example 200] was 0.126 to 1 µM; that for `CN(C[C@H](O)[C@@H](O)[C@@H](O)[C@H](O)CO)C(=O)CCc1cc(Cl)c(CN2C[C@@H](F)C[C@H]2C(=O)N2CCN(C3CC3)c3ccccc32)cc1Cl` [Example 267] was 1.26 to 50.1 µM.
Still for that read-out and setting: the value for `O=C(CCCCc1ccc(Cl)c(CNC2(C(=O)N3CCN(C4CC4)c4ccccc43)CC2)c1)NC[C@H](O)[C@@H](O)[C@H](O)[C@H](O)CO` [Example 261] was 0.126 to 1 µM.
Turning to `CN(CCCCc1cc(Cl)c(OCC2(C(=O)N3CCN(C4CC4)c4ccccc43)CC2)cc1Cl)C[C@H](O)[C@@H](O)[C@H](O)[C@H](O)CO` [Example 171, (4-cyclopropyl-3,4-dihydroquinoxalin-1(2H)-yl)(1-((2,5-dichloro-4-(4-(methyl((2S,3R,4R,5R)-2,3,4,5,6-pentahydroxyhexyl)amino)butyl)phenoxy)methyl)-cyclopropyl)methanone], the EC50 was 0.126 to 1 µM.
The same measure, in the same setting: the result for `O=C(N1CCN(C2CC2)c2ccccc21)C1(NCc2cc(I)ccc2C(F)(F)F)CC1` [Example 164, (4-cyclopropyl-3,4-dihydroquinoxalin-1(2H)-yl)(1-(5-iodo-2-(trifluoromethyl)benzylamino)cyclopropyl)methanone] reads 0.126 to 1 µM; that for `O=C(NC[C@H](O)[C@@H](O)[C@H](O)[C@H](O)CO)c1ccc(OCCCc2cc(Cl)c(CN3CSC[C@H]3C(=O)N3CCN(C4CC4)c4ccccc43)cc2Cl)cc1` [Example 286], 0.126 to 1 µM.
The same measure, in the same setting: the result for `CN(C[C@H](O)[C@@H](O)[C@H](O)[C@H](O)CO)C(=O)NCCCc1cc(Cl)c(OCC2(C(=O)N3CCN(C4CC4)c4ccccc43)CC2)cc1Cl` [Example 253] reads 0.126 to 1 µM; that for `CN(C[C@H](O)[C@@H](O)[C@H](O)[C@H](O)CO)C(=O)CCCCc1ccc(Cl)c(CNC2(C(=O)N3CCN(C4CC4)c4ccccc43)CC2)c1` [Example 260], 0.126 to 1 µM; that for `CN(C(=O)[C@@H]1CSCN1Cc1cc(Cl)ccc1Cl)c1ccccc1OC1CC1` [Example 289], 0.126 to 1 µM.
The same measure, in the same setting: the result for `COC(=O)[C@@H](CCCCN)NC(=O)NCCCCCc1cc(Cl)c(CN2CSC[C@H]2C(=O)N2CCN(C3CC3)c3ccccc32)cc1Cl` [Example 275] reads 0.126 to 1 µM; that for `CN(CCO)c1nc(NCCCCCc2cc(Cl)c(CN3CSC[C@H]3C(=O)N3CCN(C4CC4)c4ccccc43)cc2Cl)cc(C(=O)NC[C@H](O)[C@@H](O)[C@H](O)[C@H](O)CO)n1` [Example 225], less than 0.1 µM; that for `O=C(O)c1cnn(Cc2cc(Cl)c(CN3CSC[C@H]3C(=O)N3CCN(C4CC4)c4ccccc43)cc2Cl)c1` [Example 232], 1.26 to 50.1 µM.
With `O=C([C@@H]1CSCN1Cc1cc(Cl)c(CN2CSC[C@H]2C(=O)N2CCN(C3CC3)c3ccccc32)cc1Cl)N1CCN(C2CC2)c2ccccc21` [Example 284], the EC50 is 1.26 to 50.1 µM.
The same measure, in the same setting: the value for `O=C(NCCCN(CCCNC(=O)[C@H](O)[C@@H](O)[C@H](O)[C@H](O)CO)C(=O)CCc1cc(Cl)c(CN2CSC[C@H]2C(=O)N2CCN(C3CC3)c3ccccc32)cc1Cl)[C@H](O)[C@@H](O)[C@H](O)[C@H](O)CO` [Example 209] was 1.26 to 50.1 µM.
Same read-out and setting: the result for `CN(C[C@H](O)[C@@H](O)[C@H](O)[C@H](O)CO)C(=O)c1ccc(COc2cc(Cl)c(CN3CSC[C@H]3C(=O)N3CCN(C4CC4)c4ccccc43)cc2Cl)nc1` [Example 205] reads 0.126 to 1 µM.

Still in this experiment, the particulars now being: pEC50 Human TGR5, HEK293 cells stably expressing human TGR5, 30 min at 37 C, 0.05 nM to 10 μM.
Turning to `O=C(NCCCN(CCCNC(=O)[C@H](O)[C@@H](O)[C@H](O)[C@H](O)CO)C(=O)NCCCCOc1cc(Cl)c(CN2CSC[C@H]2C(=O)N2CCN(C3CC3)c3ccccc32)cc1Cl)[C@H](O)[C@@H](O)[C@H](O)[C@H](O)CO` [Example 195], the EC50 fell in the range of 0.126 to 1 µM.
Still for that read-out and setting: the value for `O=C(O)CN(C[C@H](O)[C@@H](O)[C@H](O)[C@H](O)CO)C(=O)CCCCc1cc(Cl)c(CN2CSC[C@H]2C(=O)N2CCN(C3CC3)c3ccccc32)cc1Cl` [Example 226] was 0.126 to 1 µM.
